Source: PubChem BioAssay AID330 (DTP/NCI, 2004)
“And” between values parts separate entries of the source, which are not always exact repeats. Equal values may be shown once. Inconclusive results and toxic doses are left out. Rule for the calls: active = survival T/C of 150% or more; inactive = T/C below 125% in these data.

System: P388 leukemia ip, CD2F1 mice, survival T/C
Assay: NCI In Vivo Anticancer Drug Screen. Data for tumor model P388 Leukemia (intraperitoneal) in CD2F1 (CDF1) mice
Details: endpoint: median survival time, higher = longer survival
Outline: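 Mice carrying the transplanted tumor received test compound or vehicle. Survival was recorded in each group, and the value is the treated-group measurement divided by that of the vehicle-treated control group.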

[1] = dose: 60.0 mg/kg/injection, schedule: Q01DX005 (ip), vehicle: Klucel (hydroxypropylcellulose) (HPC)
[2] = dose: 120.0 mg/kg/injection, schedule: Q01DX005 (ip), vehicle: Klucel (hydroxypropylcellulose) (HPC)
[3] = dose: 100.0 mg/kg/injection, schedule: Q04DX003 (ip), vehicle: saline
[4] = dose: 200.0 mg/kg/injection, schedule: Q04DX003 (ip), vehicle: saline
[5] = dose: 400.0 mg/kg/injection, schedule: Q04DX003 (ip), vehicle: saline
[6] = dose: 50.0 mg/kg/injection, schedule: Q01DX009 (ip), vehicle: saline
[7] = dose: 200.0 mg/kg/injection, schedule: Q01DX009 (ip), vehicle: saline
[8] = dose: 60.0 mg/kg/injection, schedule: Q01DX005 (ip), vehicle: saline with Tween-80
[9] = dose: 120.0 mg/kg/injection, schedule: Q01DX005 (ip), vehicle: saline with Tween-80
[10] = dose: 50.0 mg/kg/injection, schedule: Q01DX005 (ip), vehicle: saline with Tween-80
[11] = dose: 100.0 mg/kg/injection, schedule: Q01DX005 (ip), vehicle: saline with Tween-80
[12] = dose: 240.0 mg/kg/injection, schedule: Q01DX005 (ip), vehicle: saline with Tween-80
[13] = dose: 60.0 mg/kg/injection, schedule: Q01DX005 (ip), vehicle: saline
[14] = dose: 120.0 mg/kg/injection, schedule: Q01DX005 (ip), vehicle: saline

Measured: T/C

COC1=NC2=NC(OC)=NC3=C(Br)C=C(Br)C(=N1)N23
inactive: [1] 91 % of control | [2] 92 % of control | dose: 240.0 mg/kg/injection, schedule: Q01DX005 (ip), vehicle: Klucel (hydroxypropylcellulose) (HPC) 87 % of control

COC(=O)C(C(=O)OC)=S1C(Cl)=CC=C1Cl
inactive: [3] 108 % of control | [4] 104 % of control | [5] 106 % of control

CC(C)c1nc(N)nc(N)n1
inactive: [6] 93 % of control | [7] 90 % of control

CN(C)CCCSc1c2ccccc2nc2cccc([N+](=O)[O-])c12
inactive: [8] 94 % of control | [9] 106 % of control

CCCCn1c(Cl)c(/C=N\Nc2ccc([N+](=O)[O-])cc2[N+](=O)[O-])c2ccccc21
inactive: dose: 100.0 mg/kg/injection, schedule: Q04DX003 (ip), vehicle: saline with Tween-80 94 % of control | dose: 200.0 mg/kg/injection, schedule: Q04DX003 (ip), vehicle: saline with Tween-80 90 % of control | dose: 400.0 mg/kg/injection, schedule: Q04DX003 (ip), vehicle: saline with Tween-80 88 % of control

[C-]#[O+].[C-]#[O+].[C-]#[O+].[CH3][Sn]([c]1ccccc1)[c]1ccccc1.[W].[c-]1[c-][c-][cH-][c-]1
inactive: [3] 103 % of control | [4] 110 % of control | [5] 110 % of control

CC(NNC(=S)N1CCCC1)c1ccccn1 (stereo not given)
inactive: [10] 107 % of control | [11] 105 % of control

COC1/C=C/OC2(C)Oc3c(C)c(O)c4c(c3C2=O)C(=O)C2=C(NC(=NC2)/C(C)=C\C=C\C(C)C(O)C(C)C(O)C(C)C(OC(C)=O)C1C)C4=O (stereo not given)
inactive: dose: 6.25 mg/kg/injection, schedule: Q04DX003 (ip), vehicle: other 94 % of control | dose: 12.5 mg/kg/injection, schedule: Q04DX003 (ip), vehicle: other 101 % of control | dose: 25.0 mg/kg/injection, schedule: Q04DX003 (ip), vehicle: other 113 % of control | dose: 50.0 mg/kg/injection, schedule: Q04DX003 (ip), vehicle: other 109 % of control | dose: 100.0 mg/kg/injection, schedule: Q04DX003 (ip), vehicle: other 122 % of control

O=C1c2ccccc2C(=O)c2c1cn1c2Cc2ccccc2C1
inactive: dose: 30.0 mg/kg/injection, schedule: Q01DX005 (ip), vehicle: Klucel (hydroxypropylcellulose) (HPC) 103 % of control and 97 % of control | [1] 113 % of control and 94 % of control | [2] 103 % of control and 113 % of control and 96 % of control | dose: 0.25 ml/mouse/injection, schedule: Q01DX005 (ip), vehicle: other 107 % of control | dose: 0.5 ml/mouse/injection, schedule: Q01DX005 (ip), vehicle: other 106 % of control

O=c1c(N=Nc2ccccc2Cl)c(O)n(-c2ccc(Cl)cc2)c(=S)n1-c1ccc(Br)cc1
inactive: dose: 100.0 mg/kg/injection, schedule: Q04DX002 (ip), vehicle: saline with Tween-80 99 % of control | dose: 200.0 mg/kg/injection, schedule: Q04DX002 (ip), vehicle: saline with Tween-80 99 % of control | dose: 400.0 mg/kg/injection, schedule: Q04DX002 (ip), vehicle: saline with Tween-80 112 % of control

Cc1cc(C2C(=O)c3ccccc3C2=O)cc(C(C)(C)C)c1O
inactive: dose: 100.0 mg/kg/injection, schedule: Q04DX002 (ip), vehicle: saline 115 % of control | dose: 200.0 mg/kg/injection, schedule: Q04DX002 (ip), vehicle: saline 107 % of control | dose: 400.0 mg/kg/injection, schedule: Q04DX002 (ip), vehicle: saline 96 % of control

O=C(Nc1ccc(S(=O)(=O)F)cc1)Oc1ccc([N+](=O)[O-])cc1
inactive: [8] 121 % of control | [9] 101 % of control | [12] 86 % of control

CC1=C(C)C(=O)C(C(C)(C)CC(=O)n2cc(F)c(=O)[nH]c2=O)=C(C)C1=O
inactive: dose: 100.0 mg/kg/injection, schedule: Q01DX001 (ip), vehicle: saline with Tween-80 111 % of control

Cc1cc2nc3c(C4OCC(O)C4O)nn(-c4ccccc4)c3nc2cc1C (stereo not given)
inactive: dose: 3.12 mg/kg/injection, schedule: Q01DX005 (ip), vehicle: Klucel (hydroxypropylcellulose) (HPC) 93 % of control | dose: 6.25 mg/kg/injection, schedule: Q01DX005 (ip), vehicle: Klucel (hydroxypropylcellulose) (HPC) 88 % of control | dose: 50.0 mg/kg/injection, schedule: Q01DX005 (ip), vehicle: Klucel (hydroxypropylcellulose) (HPC) 88 % of control | dose: 100.0 mg/kg/injection, schedule: Q01DX005 (ip), vehicle: Klucel (hydroxypropylcellulose) (HPC) 93 % of control | dose: 200.0 mg/kg/injection, schedule: Q01DX005 (ip), vehicle: Klucel (hydroxypropylcellulose) (HPC) 103 % of control

O=C1CCCCc2scc(C(=O)O)c2N1
inactive: dose: 100.0 mg/kg/injection, schedule: Q04DX003 (ip), vehicle: Klucel (hydroxypropylcellulose) (HPC) 104 % of control | dose: 200.0 mg/kg/injection, schedule: Q04DX003 (ip), vehicle: Klucel (hydroxypropylcellulose) (HPC) 111 % of control | dose: 400.0 mg/kg/injection, schedule: Q04DX003 (ip), vehicle: Klucel (hydroxypropylcellulose) (HPC) 102 % of control

O=C(NO)C(O)C(O)C(O)CO (stereo not given)
inactive: [6] 101 % of control | dose: 100.0 mg/kg/injection, schedule: Q01DX009 (ip), vehicle: saline 104 % of control | [7] 104 % of control

C1OC1C1CO1 (stereo not given)
inactive: dose: 10.0 mg/kg/injection, schedule: Q04DX003 (ip), vehicle: saline 113 % of control | dose: 13.2 mg/kg/injection, schedule: Q01DX009 (ip), vehicle: saline 109 % of control | dose: 20.0 mg/kg/injection, schedule: Q04DX003 (ip), vehicle: saline 113 % of control | dose: 30.0 mg/kg/injection, schedule: Q01DX009 (ip), vehicle: saline 118 % of control | dose: 40.0 mg/kg/injection, schedule: Q01DX009 (ip), vehicle: saline 95 % of control | dose: 40.0 mg/kg/injection, schedule: Q04DX003 (ip), vehicle: saline 109 % of control

CCOC(=O)c1ccc(N(CC(O)CN=[N+]=[N-])S(=O)(=O)c2ccc(C)cc2)cc1 (stereo not given)
inactive: [8] 112 % of control | [9] 102 % of control | [12] 96 % of control

Cc1ccc(NC(=O)Oc2ccc([N+](=O)[O-])cc2)cc1S(=O)(=O)F
inactive: [8] 113 % of control | [9] 104 % of control | [12] 95 % of control

SCc1ccccc1CS
inactive: dose: 50.0 mg/kg/injection, schedule: Q01DX009 (ip), vehicle: saline with Tween-80 110 % of control and 112 % of control and 114 % of control | dose: 100.0 mg/kg/injection, schedule: Q01DX009 (ip), vehicle: saline with Tween-80 110 % of control and 114 % of control and 121 % of control | dose: 200.0 mg/kg/injection, schedule: Q01DX009 (ip), vehicle: saline with Tween-80 107 % of control

C=CCn1c(NC2=C(Cl)C(=O)c3ccccc3C2=O)cc(=O)[nH]c1=O
inactive: dose: 12.5 mg/kg/injection, schedule: Q01DX009 (ip), vehicle: Klucel (hydroxypropylcellulose) (HPC) 104 % of control | dose: 25.0 mg/kg/injection, schedule: Q01DX009 (ip), vehicle: Klucel (hydroxypropylcellulose) (HPC) 98 % of control | dose: 50.0 mg/kg/injection, schedule: Q01DX009 (ip), vehicle: Klucel (hydroxypropylcellulose) (HPC) 99 % of control and 98 % of control

C#CC1OCCCO1
inactive: [13] 100 % of control | [14] 106 % of control

COC(=O)c1ccnc(C(=O)OC)c1
inactive: dose: 50.0 mg/kg/injection, schedule: Q01DX001 (ip), vehicle: saline 86 % of control | dose: 100.0 mg/kg/injection, schedule: Q01DX001 (ip), vehicle: saline 95 % of control | dose: 200.0 mg/kg/injection, schedule: Q01DX001 (ip), vehicle: saline 100 % of control

Cc1cc(C)nc(NS(=O)(=O)c2ccc(N=c3c4ccccc4n(C)c4ccccc34)cc2)n1
inactive: [10] 90 % of control | [11] 97 % of control | dose: 200.0 mg/kg/injection, schedule: Q01DX005 (ip), vehicle: saline with Tween-80 90 % of control

COC(=O)C1(CC(=O)c2ccc(C)cc2)NC(=S)NC(=O)C1C#N (stereo not given)
inactive: [13] 100 % of control | [14] 104 % of control | dose: 240.0 mg/kg/injection, schedule: Q01DX005 (ip), vehicle: saline 100 % of control

O=C(Nc1ccccc1)c1cc2ccccc2oc1=O
inactive: dose: 30.0 mg/kg/injection, schedule: Q01DX005 (ip), vehicle: saline with Tween-80 99 % of control | [8] 95 % of control | [9] 94 % of control | [12] 100 % of control

O=C(O)C1CC2c3ccccc3C1([N+](=O)[O-])c1ccccc12 (stereo not given)
inactive: [8] 101 % of control | [9] 104 % of control | [12] 109 % of control

O=C1OC(=O)C2C3C=CC(C4C=C(C5CC5)C43)C12 (stereo not given)
inactive: [3] 102 % of control | [4] 107 % of control | [5] 111 % of control

COC1(CO)C(=O)N(C)CC(=O)N1C (stereo not given)
inactive: [13] 106 % of control | [14] 106 % of control
